This passage reports TGI and GI50 results from PubChem BioAssay (NCI).

Each structure is given as a SMILES string.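 Each compound was tested at five concentrations against cells in 96-well plates for 48 hours. Here, GI50 denotes the concentration required for 50% inhibition of growth. TGI: concentration producing complete growth inhibition.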

Among the test systems are PC-3 prostate; SR leukemia; IGROV1 ovarian; UACC-62 melanoma; NCI/ADR-RES ovarian; HCT-15 colon; OVCAR-5 ovarian; SK-OV-3 ovarian; 786-0 renal; MOLT-4 leukemia; RXF 393 renal.
Holding throughout (assay): NCI tumour cell line growth inhibition, 48 h

As to `CN(C)c1ccc(C2SCC(=O)N2c2ccc(Oc3ccc(Cl)cc3)c(Cl)c2)cc1` (stereo not drawn), the TGI in the assay with PC-3 prostate was 55.6 µM; in the assay on SR leukemia, 57.3 µM; with IGROV1 ovarian it was 92.5 µM; in the assay on UACC-62 melanoma, 42.7 µM; with NCI/ADR-RES ovarian, 50.7 µM; with HCT-15 colon, 55.8 µM. The TGI in the assay with OVCAR-5 ovarian was 87.7 µM; with SK-OV-3 ovarian it was 60.4 µM; with 786-0 renal, 41.7 µM; in the assay on MOLT-4 leukemia it was > 100 µM.

For the compound `On1c(-c2ccccc2)nc2ccccc2c1=S`, the TGI is 74.2 µM in the assay on PC-3 prostate; > 100 µM in the assay on IGROV1 ovarian; > 100 µM with UACC-62 melanoma; > 100 µM in the assay with NCI/ADR-RES ovarian; > 100 µM in the assay on HCT-15 colon; > 100 µM in the assay on RXF 393 renal. Moreover, the TGI in the assay with OVCAR-5 ovarian was > 100 µM; in the assay on SK-OV-3 ovarian, > 100 µM; in the assay on 786-0 renal, > 100 µM; with MOLT-4 leukemia, 11.2 µM.

For `S=C(Nc1ccc2c(c1)oc1ccccc12)c1cccnc1`, the TGI in the assay on PC-3 prostate, with SR leukemia, with IGROV1 ovarian, in the assay on UACC-62 melanoma, in the assay on NCI/ADR-RES ovarian and in the assay with HCT-15 colon was > 100 µM in each case. Also, the TGI in the assay on OVCAR-5 ovarian is > 100 µM; in the assay on SK-OV-3 ovarian, 40.7 µM; in the assay on 786-0 renal, > 100 µM; in the assay on MOLT-4 leukemia it was > 100 µM.

Turning to `Cc1ccc(S(=O)(=O)NC(=O)N[C@@H](Cc2cnc[nH]2)C(=O)O)cc1`, the TGI in the assay on PC-3 prostate, in the assay on IGROV1 ovarian, in the assay on UACC-62 melanoma, in the assay on NCI/ADR-RES ovarian, in the assay with HCT-15 colon and in the assay on RXF 393 renal was > 100 µM each time. For the same compound, the TGI in the assay on OVCAR-5 ovarian, with SK-OV-3 ovarian, in the assay with 786-0 renal and in the assay with MOLT-4 leukemia was > 100 µM throughout.

As for `Cc1ccc(O)c(-c2cscn2)c1`, the TGI with PC-3 prostate, in the assay on SR leukemia, in the assay with IGROV1 ovarian, with UACC-62 melanoma, in the assay with NCI/ADR-RES ovarian and in the assay with HCT-15 colon was > 100 µM each time. The TGI in the assay on OVCAR-5 ovarian, in the assay on SK-OV-3 ovarian, in the assay on 786-0 renal and with MOLT-4 leukemia was > 100 µM throughout.

`C=C1CN2CC(=C)CN(C1)CS(=O)(=O)N1CC(=C)CN(CC(=C)C1)S(=O)(=O)N1CC(=C)CN(CC(=C)C1)S(=O)(=O)C2`: the TGI is 38.6 µM in the assay with PC-3 prostate; > 100 µM in the assay on SR leukemia; > 100 µM with IGROV1 ovarian; > 100 µM with UACC-62 melanoma; > 100 µM in the assay with NCI/ADR-RES ovarian; > 100 µM with HCT-15 colon. Also, the TGI with RXF 393 renal is 56.8 µM; with OVCAR-5 ovarian, > 100 µM; in the assay with 786-0 renal it was 58.9 µM; in the assay on MOLT-4 leukemia, > 100 µM.

Take `C=CCOc1ccc(C2(O)c3ccccc3C3=NCCCN32)cc1` (stereo not drawn): the TGI in the assay with PC-3 prostate was > 100 µM; in the assay on SR leukemia, > 78.8 µM; in the assay on IGROV1 ovarian, > 100 µM; with UACC-62 melanoma it was > 57 µM; in the assay with NCI/ADR-RES ovarian, > 100 µM; in the assay with HCT-15 colon, > 100 µM. Moreover, the TGI with OVCAR-5 ovarian was > 100 µM; in the assay with SK-OV-3 ovarian, > 100 µM; in the assay on 786-0 renal, > 78.6 µM; with MOLT-4 leukemia it was > 100 µM.

Regarding `COc1cc(OC)c(C2c3cc4c(cc3OC(N3CCCC3)C2C)OCO4)c(OC)c1` (stereo not drawn), the TGI turned out to be 49 µM in the assay with PC-3 prostate; 29.6 µM in the assay with SR leukemia; 52.8 µM with IGROV1 ovarian; 69.6 µM with UACC-62 melanoma; 67 µM in the assay on NCI/ADR-RES ovarian; 52.3 µM in the assay on HCT-15 colon. Also, the values for the TGI in the assay with OVCAR-5 ovarian, in the assay on 786-0 renal and with MOLT-4 leukemia were 69 µM, 53.8 µM and 31.6 µM, respectively.

`COc1ccc2c(c1)CCN1CCc3ccccc3CC21` (stereo not drawn): the TGI in the assay on PC-3 prostate, with SR leukemia, in the assay on IGROV1 ovarian, in the assay on UACC-62 melanoma, with NCI/ADR-RES ovarian and in the assay on HCT-15 colon was > 100 µM in each case. Also, the TGI in the assay on OVCAR-5 ovarian, with SK-OV-3 ovarian, with 786-0 renal and with MOLT-4 leukemia was > 100 µM each time.

For the compound `O=C1C(=Cc2ccccc2O)N=C(c2ccccc2)N1n1c(-c2ccccc2)nc2ccccc2c1=O`, the TGI in the assay on PC-3 prostate, with SR leukemia, in the assay with IGROV1 ovarian, with UACC-62 melanoma, in the assay with HCT-15 colon and in the assay on SK-OV-3 ovarian was > 100 µM in each case. For the same compound, the TGI in the assay on 786-0 renal was > 100 µM; in the assay on MOLT-4 leukemia, 77.7 µM.

On to `COc1ccc(-c2nn(-c3ccc(NC(=O)Nc4cc(C(F)(F)F)cc(C(F)(F)F)c4)cc3)cc2-c2ccncc2)cc1Cl`, for which the GI50 is 1.73 µM in the assay on PC-3 prostate; 2.54 µM in the assay with SR leukemia; 3.45 µM in the assay with IGROV1 ovarian; 2.02 µM with UACC-62 melanoma; 2.91 µM in the assay on NCI/ADR-RES ovarian; 2.88 µM in the assay with HCT-15 colon. Further, the GI50 with RXF 393 renal is 1.69 µM; in the assay with OVCAR-5 ovarian, 2.64 µM. Further, the TGI was > 100 µM with PC-3 prostate; 6.56 µM with SR leukemia; > 100 µM in the assay on IGROV1 ovarian; 5.02 µM in the assay with UACC-62 melanoma; > 100 µM with NCI/ADR-RES ovarian; > 100 µM with HCT-15 colon. The figures for the TGI with RXF 393 renal and in the assay on OVCAR-5 ovarian were 3.87 µM and 14.7 µM, respectively.

`O=c1oc2ccc([N+](=O)[O-])cc2c(Nc2ccc3c(c2)Oc2ccccc2O3)c1[N+](=O)[O-]`: the TGI in the assay on PC-3 prostate is 55.4 µM; with SR leukemia, 72.4 µM; with IGROV1 ovarian, > 100 µM; in the assay with UACC-62 melanoma, > 100 µM; in the assay on NCI/ADR-RES ovarian it was > 100 µM; in the assay on HCT-15 colon, > 100 µM. The TGI is > 100 µM in the assay with RXF 393 renal, > 100 µM in the assay with OVCAR-5 ovarian, > 100 µM in the assay with SK-OV-3 ovarian and 67.9 µM in the assay on 786-0 renal.

Consider `CCC(=O)ONC(=O)Cn1ccc([N+](=O)[O-])n1`, for which the TGI in the assay on PC-3 prostate, in the assay with SR leukemia, with IGROV1 ovarian, in the assay on UACC-62 melanoma, in the assay on NCI/ADR-RES ovarian and in the assay on RXF 393 renal was > 100 µM throughout. Further, the TGI in the assay on OVCAR-5 ovarian, in the assay on SK-OV-3 ovarian, in the assay with 786-0 renal and in the assay on MOLT-4 leukemia was > 100 µM in each case.
